As a reminder, the half-life is the time needed for the level to fall by half in the phase considered.

A value given as a limit tells only on which side of the number the result lay.

The data set can be described thus: Metabolic stability in human liver microsomes assessed as half life measured upto 60 mins by LC/MS-MS analysis. It is filed as ADME, Microsome. In general terms: Liver microsomes are vesicles of endoplasmic reticulum, rich in cytochrome P450 enzymes.
On to `C[C@@H]1C[C@H](N)C[C@H](c2ccncc2NC(=O)c2ccc(F)c(-c3ccccc3F)n2)C1`, for which the half-life was over 180 min. The value for `C[C@@H]1C[C@H](N)CN(c2ccncc2NC(=O)c2ccc(F)c(-c3ccccc3F)n2)C1` was 13 min; that for `C[C@@H]1C[C@H](N)CN(c2ccncc2NC(=O)c2ccc(F)c(-c3c(F)cccc3F)n2)C1` was 40 min.
